From the CheMixHub ionic liquid set

Assay: xn = mol fraction of the nth substance listed

CC(O)C(=O)[O-].CCC[N+]1(C)CCN(C)CC1 + CC#N
298 K, 101 kPa
Conditions	electrical conductivity [S/m]
x2 = 0.824	1.63
x2 = 0.848	1.79
x2 = 0.879	1.94

C[NH+](C)C.O=S(=O)([N-]S(=O)(=O)C(F)(F)F)C(F)(F)F + CC#N
101 kPa
Conditions	electrical conductivity [S/m]
298.15 K, x2 = 0.66	4.82
303.15 K, x2 = 0.86	6.87

Cn1cc[n+](CCCN)c1.F[B-](F)(F)F + CC#N
electrical conductivity [S/m], 101 kPa, frequency 3 MHz
Conditions	x1 = 0.1001	x1 = 0.2005	x1 = 0.3	x1 = 0.399	x1 = 0.4996	x1 = 0.598	x1 = 0.6975	x1 = 0.7983	x1 = 0.8987	x1 = 1
288.15 K	1.69	1.25	0.915	0.614	0.416	0.281	0.168	0.088	0.044	0.011
293.15 K	1.94	1.49	1.103	0.749	0.519	0.35	0.211	0.117	0.062	0.018
298.15 K	2.243	1.742	1.309	0.906	0.625	0.427	0.267	0.153	0.085	0.026
303.15 K	2.56	2.036	1.535	1.08	0.746	0.515	0.329	0.195	0.112	0.04
308.15 K	2.89	2.343	1.79	1.27	0.874	0.611	0.402	0.243	0.144	0.055
313.15 K	3.24	2.68	2.06	1.48	1.021	0.721	0.487	0.301	0.182	0.072
318.15 K	3.622	3.05	2.36	1.7	1.17	0.844	0.58	0.364	0.225	0.094
323.15 K	4.04	3.46	2.68	1.938	1.344	0.982	0.692	0.437	0.276	0.124

viscosity [mPa·s], 101 kPa
Conditions	x1 = 0.1001	x1 = 0.2005	x1 = 0.3	x1 = 0.399	x1 = 0.4996	x1 = 0.598	x1 = 0.6975	x1 = 0.7983	x1 = 0.8987	x1 = 1
288.15 K	18.13	36	55.18	75.79	98.1	121.5	147	174.5	202.6	231.2
293.15 K	13.81	27.35	42.52	58.84	76.44	95.92	116.8	139.6	161.9	185.4
298.15 K	10.64	21.28	33.13	46.19	60.38	76.12	93.68	112	130.2	149.6
303.15 K	8.386	16.73	26.24	36.56	48.34	61.21	75.42	90.05	104.8	121.1
308.15 K	6.804	13.48	21.1	29.46	38.98	49.81	61.47	74.04	86.51	100.2
313.15 K	5.588	11.04	17.16	24.04	32.08	40.8	50.47	61.67	71.62	83.06
318.15 K	4.761	9.062	14.08	19.9	26.59	33.85	41.94	51.42	59.82	69.26
323.15 K	4.016	7.65	11.81	16.54	22.05	28.29	35.74	43.45	50.53	58.45

CC(=O)[O-].CCCC[P+](CCCC)(CCCC)CCCC + CC(=O)[O-].CCCC[n+]1ccn(C)c1
101 kPa
Conditions	viscosity [mPa·s]
313.15 K, x2 = 0.751	246
323.15 K, x2 = 0.5018	169.2

CC(=O)[O-].Cn1cc[nH+]c1 + CC(=O)[O-].C[NH+]1CCCC1
Conditions	viscosity [mPa·s]
298.15 K, 100 kPa, x1 = 1	6.22

CCOS(=O)(=O)[O-].CC[n+]1ccn(C)c1 + CC(=O)c1ccccc1
100 kPa, x2 = 0
Conditions	viscosity [mPa·s]
313.15 K	40
333.15 K	20.4

CC[n+]1ccn(C)c1.F[P-](F)(F)(F)(F)F + CC(C)C[C@H](N)C(=O)O + O
100 kPa
Conditions	electrical conductivity, 298.15 K [S/m]	electrical conductivity, 303.15 K [S/m]	electrical conductivity, 308.15 K [S/m]	viscosity, 298.15 K [mPa·s]	viscosity, 303.15 K [mPa·s]	viscosity, 308.15 K [mPa·s]
x2 = 0.0001802, x1 = 1.802e-05	0.011	0.0123	0.0135	0.925	0.857	0.783
x2 = 0.0001803, x1 = 5.405e-05	0.0293	0.0326	0.0354	0.94	0.862	0.788
x2 = 0.0001804, x1 = 9.008e-05	0.0464	0.0517	0.0561	0.955	0.866	0.793
x2 = 0.0004522, x1 = 1.801e-05	0.0109	0.0122	0.0133	0.933	0.864	0.791
x2 = 0.0004524, x1 = 5.403e-05	0.0295	0.0328	0.0353	0.946	0.868	0.795
x2 = 0.0004526, x1 = 9.005e-05	0.0461	0.0514	0.0557	0.962	0.876	0.802
x2 = 0.0007258, x1 = 1.801e-05	0.0111	0.0122	0.0135	0.94	0.872	0.799
x2 = 0.0007262, x1 = 5.402e-05	0.0293	0.0326	0.0351	0.957	0.879	0.805
x2 = 0.0007265, x1 = 9.003e-05	0.0458	0.051	0.0558	0.973	0.885	0.812
x2 = 0.0009976, x1 = 1.8e-05	0.0106	0.0118	0.013	0.947	0.88	0.806
x2 = 0.000998, x1 = 5.4e-05	0.0288	0.032	0.0348	0.964	0.885	0.811
x2 = 0.0009985, x1 = 9e-05	0.0451	0.0505	0.055	0.981	0.895	0.82
x2 = 0.001273, x1 = 1.8e-05	0.011	0.0122	0.0134	0.955	0.888	0.814
x2 = 0.001273, x1 = 5.399e-05	0.0285	0.0318	0.0345	0.973	0.895	0.821
x2 = 0.001274, x1 = 8.998e-05	0.0449	0.0502	0.0545	0.991	0.904	0.827
x2 = 0.001546, x1 = 1.799e-05	0.0112	0.0123	0.0136	0.961	0.895	0.822
x2 = 0.001547, x1 = 5.397e-05	0.0283	0.0315	0.0344	0.982	0.905	0.831
x2 = 0.001547, x1 = 8.995e-05	0.0445	0.0493	0.0541	1	0.912	0.841

CC[n+]1ccn(CCOC)c1.N#C[S-] + CC(C)O
viscosity [mPa·s], 100 kPa
Conditions	x1 = 0.1	x1 = 0.1998	x1 = 0.3234	x1 = 0.3998	x1 = 0.5003	x1 = 0.6	x1 = 0.697	x1 = 0.8002	x1 = 0.8991	x1 = 1
288.15 K	4.25	6.2	10.24	15.05	19.9	28.1	38.6	54.1	72.5	93.1
293.15 K	3.66	5.32	8.77	12.96	16.8	23	31.1	42.7	56.8	70.8
298.15 K	3.18	4.62	7.6	11.21	14.12	19.3	25.7	34.4	45	55.8
303.15 K	2.79	4.05	6.64	9.42	11.99	16.48	21.6	28.2	36.3	44.3
308.15 K	2.45	3.58	5.82	8.25	10.28	14.1	18.7	23.5	29.9	36
313.15 K	2.17	3.18	5.17	7.23	8.91	12.18	15.97	19.8	24.9	29.7
318.15 K	1.93	2.84	4.6	6.27	7.78	10.62	13.55	17.18	21.1	24.9
